Where two headings read alike, the source gives them in different places.
Columns and labels:
Assay type in all cases: cell-based
[1] = tested on: BT474 (breast cancer) cells; assay: In vitro cell assay (MTS cell viability), BT474; conditions: Homo sapiens, BT-474; free compounds (natural products and synthetic analogs); cell viability 96 hours after treatment
Procedure, shortened: (§1)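 Cells seeded 24 h, then treated with antibody-drug conjugates or free drug, 3-fold serial dilutions at 10 concentrations in duplicate. Viability by MTS at 96 h as percent of untreated control; IC50 from four-parameter logistic fit.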

[2] = tested on: MDA-MB-468 cells (target non-expressing); assay: In vitro cell assay (MTS cell viability), MDA-MB-468; conditions: Homo sapiens
Experimental: Target expressing (BT474 (breast cancer), N87 (gastric cancer), HCC1954 (breast cancer), MDA-MB-361-DYT2 (breast cancer)) or non-expressing (MDA-MB-468) cells were seeded in 96-well cell culture plates for 24 hours before treatment. Cells were treated with 3-fold serially diluted antibody-drug conjugates or free compounds (i.e., no antibody conjugated to the drug) in duplicate at 10 concentrations. Cell viability was determined by CellTiter 96® AQueous One Solution Cell Proliferation MTS Assay (Promega, Madison Wis.) 96 hours after treatment. Relative cell viability was determined as percentage of untreated control. IC50 values were calculated using a four parameter logistic model #203 with XLfit v4.2 (IDBS, Guildford, Surry, UK). The potency ranged upward from 0.0002 nm. Similar procedures and techniques were employed.

[3] = tested on: N87 (gastric cancer) cells; assay: In vitro cell assay (MTS cell viability), N87; conditions: free compounds (natural products and synthetic analogs), cell viability 96 hours after treatment
Procedure, shortened: as §1

[4] = tested on: MDA-MB-361-DYT2 (breast cancer) cells; assay: In vitro cell assay (MTS cell viability), MDA-MB-361-DYT2; conditions: free compounds (natural products and synthetic analogs), cell viability 96 hours after treatment
Procedure, shortened: as §1

[5] = MDA-MB-468, 96 h, read-out: MDA-MB-468 IC50 (nM)

Compound: CC(/C=C/[C@H]1O[C@H](CC(=O)O)C[C@@]2(CO2)[C@@H]1O)=C\C[C@@H]1O[C@H](C)[C@H](NC(=O)/C=C\[C@H](C)O)C[C@@H]1C [#B4, [(3R,5S,7R,8R)-8-hydroxy-7-{(1E,3E)-5-[(2S,3S,5R,6R)-5-{[(2Z,4S)-4-hydroxypent-2-enoyl]amino}-3,6-dimethyltetrahydro-2H-pyran-2-yl]-3-methylpenta-1,3-dien-1-yl}-1,6-dioxaspiro[2.5]oct-5-yl]acetic acid]
- IC50 [1]: > 100 nM
- IC50 [2, 5]: > 100 nM
- IC50 ([3]; 96 h): > 100 nM
- IC50 ([4]; 96 h): > 100 nM

Compound: CC(/C=C/[C@@H]1C[C@]2(CO2)C[C@@H](CC(=O)O)O1)=C\C[C@@H]1O[C@H](C)[C@H](NC(=O)/C=C\[C@H](C)O)C[C@@H]1C [#B16, [(3S,5S,7S)-7-{(1E,3E)-5-[(2S,3S,5R,6R)-5-{[(2Z,4S)-4-hydroxypent-2-enoyl]amino}-3,6-dimethyltetrahydro-2H-pyran-2-yl]-3-methylpenta-1,3-dien-1-yl}-1,6-dioxaspiro[2.5]oct-5-yl]acetic acid]
- IC50 [1]: 76.1 nM
- IC50 [2, 5]: 36.8 nM
- IC50 ([3]; 96 h): 16.8 nM
- IC50 ([4]; 96 h): > 100 nM

Compound: COC(=O)C[C@@H]1C[C@@]2(CO2)C[C@@H](/C=C/C(C)=C/C[C@@H]2O[C@H](C)[C@H](NC(=O)/C=C\[C@H](C)O)C[C@@H]2C)O1 [#B148, methyl [(3S,5S,7S)-7-{(1E,3E)-5-[(2S,3S,5R,6R)-5-{[(2Z,4S)-4-hydroxypent-2-enoyl]amino}-3,6-dimethyltetrahydro-2H-pyran-2-yl]-3-methylpenta-1,3-dien-1-yl}-1,6-dioxaspiro[2.5]oct-5-yl]acetate]
- IC50 [1]: 40.8 nM
- IC50 [2, 5]: 64.4 nM
- IC50 ([3]; 96 h): 47.4 nM
- IC50 ([4]; 96 h): > 100 nM

Compound: CC(=O)O[C@@H](C)/C=C\C(=O)N[C@@H]1C[C@H](C)[C@H](C/C=C(C)/C=C/[C@H]2O[C@H](CC(=O)N[C@H]3C[C@H](N)C3)C[C@@]3(CO3)[C@@H]2O)O[C@@H]1C [#B73, (2S,3Z)-5-{[(2R,3R,5S,6S)-6-{(2E,4E)-5-[(3R,4R,5R,7S)-7-{2-[(trans-3-aminocyclobutyl)amino]-2-oxoethyl}-4-hydroxy-1,6-dioxaspiro[2.5]oct-5-yl]-3-methylpenta-2,4-dien-1-yl}-2,5-dimethyltetrahydro-2H-pyran-3-yl]amino}-5-oxopent-3-en-2-yl acetate]
- IC50 [1]: 296 nM
- IC50 [2, 5]: 276 nM
- IC50 ([3]; 96 h): 174 nM
- IC50 ([4]; 96 h): 443 nM

Compound: CCCC(=O)NC[C@@H]1C[C@@]2(CO2)C[C@@H](/C=C/C(C)=C/C[C@@H]2O[C@H](C)[C@H](NC(=O)/C=C\[C@H](C)OC(C)=O)C[C@@H]2C)O1 [#B173, (2S,3Z)-5-({(2R,3R,5S,6S)-6-[(2E,4E)-5-{(3R,5S,7S)-7-[(butanoylamino)methyl]-1,6-dioxaspiro[2.5]oct-5-yl}-3-methylpenta-2,4-dien-1-yl]-2,5-dimethyltetrahydro-2H-pyran-3-yl}amino)-5-oxopent-3-en-2-yl acetate]
- IC50 [1]: 3.64 nM
- IC50 [2, 5]: 7.85 nM
- IC50 ([3]; 96 h): 6.38 nM
- IC50 ([4]; 96 h): 29.1 nM

Compound: CC(=O)OCC1(O)C(O)C(/C=C/C(C)=C/C[C@@H]2O[C@H](C)[C@H](NC(=O)/C=C\[C@H](C)OC(C)=O)C[C@@H]2C)OC(C)(O)C1O (stereo partly drawn) [#NP9, 4-C-[(acetyloxy)methyl]-6-{(1E,3E)-5-[(2S,3S,5R,6R)-5-{[(2Z,4S)-4-(acetyloxy)pent-2-enoyl]amino}-3,6-dimethyltetrahydro-2H-pyran-2-yl]-3-methylpenta-1,3-dien-1-yl}-1-deoxyhex-2-ulopyranose]
- IC50 [1]: 65.8 nM
- IC50 [2, 5]: 59.2 nM
- IC50 ([3]; 96 h): 74.3 nM

Compound: CC(=O)OCC1(O)CC(/C=C/C(C)=C/C[C@@H]2O[C@H](C)[C@H](NC(=O)/C=C\[C@H](C)OC(C)=O)C[C@@H]2C)OC(CC(=O)O)C1 (stereo partly drawn) [#NP7, (4-[(acetyloxy)methyl]-6-{(1E,3E)-5-[(2S,3S,5R,6R)-5-{[(2Z,4S)-4-(acetyloxy)pent-2-enoyl]amino}-3,6-dimethyltetrahydro-2H-pyran-2-yl]-3-methylpenta-1,3-dien-1-yl}-4-hydroxytetrahydro-2H-pyran-2-yl)acetic acid]
- IC50 [1]: > 100 nM
- IC50 [2, 5]: > 100 nM
- IC50 ([3]; 96 h): > 100 nM

Compound: CC(=O)O[C@@H](C)/C=C\C(=O)N[C@@H]1C[C@H](C)[C@H](C/C=C(C)/C=C/[C@@H]2CC(C)=CC(=O)O2)O[C@@H]1C [#NP11, (2S,3Z)-5-{[(2R,3R,5S,6S)-2,5-dimethyl-6-{(2E,4E)-3-methyl-5-[(2S)-4-methyl-6-oxo-3,6-dihydro-2H-pyran-2-yl]penta-2,4-dien-1-yl}tetrahydro-2H-pyran-3-yl]amino}-5-oxopent-3-en-2-yl acetate]
- IC50 [1]: 3.72 nM
- IC50 [2, 5]: 1.55 nM
- IC50 ([3]; 96 h): 3.67 nM
- IC50 ([4]; 96 h): 4.16 nM

Compound: CC(=O)O[C@@H](C)/C=C\C(=O)N[C@@H]1C[C@H](C)[C@H](C/C=C(C)/C=C/[C@H]2O[C@H](CC(=O)N[C@H]3CC[C@H](N)CC3)C[C@@]3(CO3)[C@@H]2O)O[C@@H]1C [#B76, (2S,3Z)-5-{[(2R,3R,5S,6S)-6-{(2E,4E)-5-[(3R,4R,5R,7S)-7-{2-[(trans-4-aminocyclohexyl)amino]-2-oxoethyl}-4-hydroxy-1,6-dioxaspiro[2.5]oct-5-yl]-3-methylpenta-2,4-dien-1-yl}-2,5-dimethyltetrahydro-2H-pyran-3-yl]amino}-5-oxopent-3-en-2-yl acetate]
- IC50 [1]: 341 nM
- IC50 [2, 5]: 272 nM
- IC50 ([3]; 96 h): 331 nM
- IC50 ([4]; 96 h): 885 nM

Compound: CC(=O)O[C@@H](C)/C=C\C(=O)N[C@@H]1C[C@H](C)[C@H](C/C=C(C)/C=C/[C@@H]2C[C@]3(CO3)C[C@@H](CC(N)=O)O2)O[C@@H]1C [#B15, (2S,3Z)-5-{[(2R,3R,5S,6S)-6-{(2E,4E)-5-[(3S,5S,7S)-7-(2-amino-2-oxoethyl)-1,6-dioxaspiro[2.5]oct-5-yl]-3-methylpenta-2,4-dien-1-yl}-2,5-dimethyltetrahydro-2H-pyran-3-yl]amino}-5-oxopent-3-en-2-yl acetate]
- IC50 [1]: 0.522 nM
- IC50 [2, 5]: 0.363 nM
- IC50 ([3]; 96 h): 0.203 nM
- IC50 ([4]; 96 h): 0.537 nM

Compound: CC(=O)O[C@@H](C)/C=C\C(=O)N[C@@H]1C[C@H](C)[C@H](C/C=C(C)/C=C/[C@@H]2C[C@]3(CO3)C[C@@H](CC(=O)O)O2)O[C@@H]1C [#NP2, [(3S,5S,7S)-7-{(1E,3E)-5-[(2S,3S,5R,6R)-5-{[(2Z,4S)-4-(acetyloxy)pent-2-enoyl]amino}-3,6-dimethyltetrahydro-2H-pyran-2-yl]-3-methylpenta-1,3-dien-1-yl}-1,6-dioxaspiro[2.5]oct-5-yl]acetic acid]
- IC50 [1]: 5.12 nM
- IC50 ([2]; MDA-MB-468, free compounds (natural products and synthetic analogs), cell viability 96 hours after treatment, read-out: MDA-MB-468 IC50): 3.39 nM
- IC50 [3]: 2.51 nM
- IC50 [4]: 8.5 nM

Compound: CCCNC(=O)C[C@@H]1C[C@@]2(CO2)[C@H](O)[C@@H](/C=C/C(C)=C/C[C@@H]2O[C@H](C)[C@H](NC(=O)/C=C\[C@H](C)OC(C)=O)C[C@@H]2C)O1 [#B63, (2S,3Z)-5-({(2R,3R,5S,6S)-6-[(2E,4E)-5-{(3R,4R,5R,7S)-4-hydroxy-7-[2-oxo-2-(propylamino)ethyl]-1,6-dioxaspiro[2.5]oct-5-yl}-3-methylpenta-2,4-dien-1-yl]-2,5-dimethyltetrahydro-2H-pyran-3-yl}amino)-5-oxopent-3-en-2-yl acetate]
- IC50 [1]: 0.651 nM
- IC50 [2, 5]: 0.348 nM
- IC50 ([3]; 96 h): 1.1 nM
- IC50 ([4]; 96 h): 0.293 nM

Compound: CCCNC(=O)C[C@@H]1C[C@@]2(CO2)C[C@@H](/C=C/C(C)=C/C[C@@H]2O[C@H](C)[C@H](NC(=O)/C=C\[C@H](C)OC(C)=O)C[C@@H]2C)O1 [#B64, (2S,3Z)-5-({(2R,3R,5S,6S)-2,5-dimethyl-6-[(2E,4E)-3-methyl-5-{(3S,5S,7S)-7-[2-oxo-2-(propylamino)ethyl]-1,6-dioxaspiro[2.5]oct-5-yl}penta-2,4-dien-1-yl]tetrahydro-2H-pyran-3-yl}amino)-5-oxopent-3-en-2-yl acetate]
- IC50 [1]: 5.26 nM
- IC50 [2, 5]: 1.38 nM
- IC50 ([3]; 96 h): 24.8 nM

Compound: CC(=O)O[C@@H](C)/C=C\C(=O)N[C@@H]1C[C@H](C)[C@H](C/C=C(C)/C=C/[C@H]2O[C@H](CC(=O)O)C[C@@]3(CO3)[C@@H]2O)O[C@@H]1C [#NP1, [(3R,5S,7R,8R)-7-{(1E,3E)-5-[(2S,3S,5R,6R)-5-{[(2Z,4S)-4-(acetyloxy)pent-2-enoyl]amino}-3,6-dimethyltetrahydro-2H-pyran-2-yl]-3-methylpenta-1,3-dien-1-yl}-8-hydroxy-1,6-dioxaspiro[2.5]oct-5-yl]acetic Acid]
- IC50 [1]: 145 nM
- IC50 [2, 5]: 142 nM
- IC50 ([3]; 96 h): 61.6 nM
- IC50 ([4]; 96 h): 160 nM

Compound: CC(=O)O[C@@H](C)/C=C\C(=O)N[C@@H]1C[C@H](C)[C@H](C/C=C(C)/C=C/[C@H]2OC(C)(O)C(O)C(O)(CO)C2O)O[C@@H]1C (stereo partly drawn) [#NP6, (6R)-6-{(1E,3E)-5-[(2S,3S,5R,6R)-5-{[(2Z,4S)-4-(acetyloxy)pent-2-enoyl]amino}-3,6-dimethyltetrahydro-2H-pyran-2-yl]-3-methylpenta-1,3-dien-1-yl}-1-deoxy-4-C-(hydroxymethyl)hex-2-ulopyranose]
- IC50 [1]: > 100 nM
- IC50 [2, 5]: > 100 nM
- IC50 ([3]; 96 h): > 100 nM
